Measured values: the supplement of paper PMC10307832

How the values were obtained:
Assay in all cases: relative viability (nuclei count vs DMSO), 5 days (fraction); higher = more cells survive
[1] = compound: CC1CC(=O)N(C2=CN=C(N=C2N1C3CCCC3)NC4=C(C=C(C=C4)C(=O)NC5CCN(CC5)C)OC)C [NPK76-II-72-1] + CS(=O)(=O)CCNCc1ccc(-c2ccc3ncnc(Nc4ccc(OCc5cccc(F)c5)c(Cl)c4)c3c2)o1 [Lapatinib] (partner 2 µM)
In short: (§1)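 Medians of duplicate plates are given as relative viability. That measure is the nuclei count in treated wells divided by the count in vehicle wells. Counts were taken on 4× images of lung cancer cell lines in 1536-well plates, 5 days after pin-tool dosing the day after seeding with one drug alone or a fixed anchor-drug dose plus five library-drug doses (not always all listed) in √10 steps.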

[2] = compound: CC[C@@H]1C(=O)N(C)c2cnc(Nc3ccc(C(=O)NC4CCN(C)CC4)cc3OC)nc2N1C1CCCC1 [BI-2536] + CS(=O)(=O)CCNCc1ccc(-c2ccc3ncnc(Nc4ccc(OCc5cccc(F)c5)c(Cl)c4)c3c2)o1 [Lapatinib] (partner 2 µM)
In short: as §1

[3] = compound: CC[C@@H]1C(=O)N(C)c2cnc(Nc3ccc(C(=O)NC4CCN(C)CC4)cc3OC)nc2N1C1CCCC1 [BI-2536] + Cc1nc(NC(=O)N2CCC[C@H]2C(N)=O)sc1-c1ccnc(C(C)(C)C(F)(F)F)c1 [Alpelisib] (partner 2 µM)
In short: as §1

[4] = compound: CC1CC(=O)N(C2=CN=C(N=C2N1C3CCCC3)NC4=C(C=C(C=C4)C(=O)NC5CCN(CC5)C)OC)C [NPK76-II-72-1] + CS(=O)(=O)N1CCN(Cc2cc3nc(-c4cccc5[nH]ncc45)nc(N4CCOCC4)c3s2)CC1 [Pictilisib] (partner 1 µM)
In short: as §1

| Cell Line | relative viability ([1]; first compound 0.01 µM) | relative viability ([1]; first compound 0.03162 µM) | relative viability ([1]; first compound 0.1 µM) | relative viability ([1]; first compound 0.3162 µM) | relative viability ([1]; first compound 1 µM) | relative viability ([2]; first compound 0.01 µM) | relative viability ([2]; first compound 0.03162 µM) | relative viability ([2]; first compound 0.1 µM) | relative viability ([2]; first compound 0.3162 µM) | relative viability ([2]; first compound 1 µM) | relative viability ([3]; first compound 0.01 µM) | relative viability ([3]; first compound 0.03162 µM) | relative viability ([3]; first compound 0.1 µM) | relative viability ([3]; first compound 0.3162 µM) | relative viability ([3]; first compound 1 µM) | relative viability ([4]; first compound 0.01 µM) | relative viability ([4]; first compound 0.03162 µM) | relative viability ([4]; first compound 0.1 µM) | relative viability ([4]; first compound 0.3162 µM) | relative viability ([4]; first compound 1 µM) |
| --- | --- | --- | --- | --- | --- | --- | --- | --- | --- | --- | --- | --- | --- | --- | --- | --- | --- | --- | --- | --- |
| NCI-H1755 | 0.958 | 0.978 | 0.994 | 1.02 | 1.11 | 0.968 | 0.982 | 0.498 | 0.204 | 0.272 | 0.989 | 0.903 | 0.711 | 0.284 | 0.296 | 0.369 | 0.462 | 0.397 | 0.432 | 0.422 |
| NCI-H2023 | 0.813 | 1.06 | 1.13 | 0.878 | 1.02 | 0.963 | 0.613 | 0.0796 | 0.0761 | 0.142 | 0.57 | 0.577 | 0.309 | 0.0843 | 0.0719 | 0.264 | 0.227 | 0.244 | 0.257 | 0.253 |
| NCI-H2009 | 0.961 | 1.09 | 0.888 | 0.774 | 1.15 | 0.869 | 0.64 | 0.101 | 0.158 | 0.0981 | 1.15 | 1.01 | 0.581 | 0.236 | 0.191 | 0.812 | 0.974 | 0.897 | 0.781 | 0.886 |
